Source: article PMC6664820, “Novel natural and synthetic inhibitors of solute carriers SGLT1 and SGLT2” (Pharmacology Research & Perspectives, 2019)
Where a name gives a salt, the structure may show the parent alone. Read-outs that look alike come from different tables or passages of the source.

Columns and labels:
[1] = tested on: CHO‐hSGLT1/2 cells; assay: Cytotoxicity assay (ToxiLight, adenylate kinase leakage into CHO‐SGLT1/2 inhibition assay media); parameters: CYTOTOXICITY / CY[…], mean / CYTOTOXICITY (% of vehicle control) Mean / CYTOTOXICITY, mean / CY[…] (% of vehicle control) Mean: dose or concentration left out as unconfirmed;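 also: bioluminescent read-out of adenylate kinase released from lysed cells into the medium, given relative to DMSO vehicle control defined as 0%, higher meaning more cytolysis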
[2] = target: T1, hSGLT2 (Homo sapiens, UniProt P31639); assay: SGLT2 inhibition assay for validation of screening hits and similar compounds (1‐NBD‐glucose uptake, CHO‐hSGLT2 cells); assay type: cell-based; parameters: activity: dose or concentration left out as unconfirmed; conditions: for remaining activity at 5 µM / remaining activity at 50 µM: 0.5 h, concentration not given, read-out: NORMALIZED SGLT2 ACTIVITY (%); for remaining activity at 5 µM / remaining activity at 50 µM / activity: mean; for activity: compound, normalized 1-NBD-glucose uptake, CHO-hSGLT2 cells; for SGLT2/SGLT1 ACTIVITY RATIO 5 uM Mean: ratio of normalized SGLT2 to SGLT1 activity at 5 uM
T1 sequence (P31639 1-672): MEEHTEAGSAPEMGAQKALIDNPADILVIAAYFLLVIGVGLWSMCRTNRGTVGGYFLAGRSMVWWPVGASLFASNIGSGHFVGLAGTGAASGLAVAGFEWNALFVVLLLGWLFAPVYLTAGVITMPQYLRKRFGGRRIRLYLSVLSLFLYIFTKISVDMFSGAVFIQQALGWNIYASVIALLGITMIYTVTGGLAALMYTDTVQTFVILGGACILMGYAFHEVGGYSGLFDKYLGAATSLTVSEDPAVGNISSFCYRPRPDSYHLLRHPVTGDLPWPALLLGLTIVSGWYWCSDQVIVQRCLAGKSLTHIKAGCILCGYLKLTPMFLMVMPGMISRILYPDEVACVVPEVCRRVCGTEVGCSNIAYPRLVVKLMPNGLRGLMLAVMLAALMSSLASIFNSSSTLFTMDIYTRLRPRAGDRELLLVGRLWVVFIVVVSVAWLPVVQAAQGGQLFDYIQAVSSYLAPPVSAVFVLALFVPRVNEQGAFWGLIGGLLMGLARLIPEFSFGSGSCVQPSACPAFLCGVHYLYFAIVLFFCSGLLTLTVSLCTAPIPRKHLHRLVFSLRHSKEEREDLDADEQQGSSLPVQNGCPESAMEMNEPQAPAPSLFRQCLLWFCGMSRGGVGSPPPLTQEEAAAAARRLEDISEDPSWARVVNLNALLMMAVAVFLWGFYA

[3] = target: T2, SGLT1 (Homo sapiens, UniProt P13866); assay: SGLT1 inhibition assay for validation of screening hits and similar compounds (1‐NBD‐glucose uptake, CHO‐hSGLT1 cells); assay type: cell-based; parameters: activity: dose or concentration left out as unconfirmed; conditions: for remaining activity at 5 µM / remaining activity at 50 µM: 0.5 h, concentration not given, read-out: NORMALIZED SGLT1 ACTIVITY (%); for remaining activity at 5 µM / remaining activity at 50 µM / activity: mean; for inhibition at 50 µM: mean inhibition with 50 μmol/L inhibitor, read-out: SGLT1 inhibition; for activity: compound, normalized 1-NBD-glucose uptake, CHO-hSGLT1 cells
T2 sequence (P13866 1-664): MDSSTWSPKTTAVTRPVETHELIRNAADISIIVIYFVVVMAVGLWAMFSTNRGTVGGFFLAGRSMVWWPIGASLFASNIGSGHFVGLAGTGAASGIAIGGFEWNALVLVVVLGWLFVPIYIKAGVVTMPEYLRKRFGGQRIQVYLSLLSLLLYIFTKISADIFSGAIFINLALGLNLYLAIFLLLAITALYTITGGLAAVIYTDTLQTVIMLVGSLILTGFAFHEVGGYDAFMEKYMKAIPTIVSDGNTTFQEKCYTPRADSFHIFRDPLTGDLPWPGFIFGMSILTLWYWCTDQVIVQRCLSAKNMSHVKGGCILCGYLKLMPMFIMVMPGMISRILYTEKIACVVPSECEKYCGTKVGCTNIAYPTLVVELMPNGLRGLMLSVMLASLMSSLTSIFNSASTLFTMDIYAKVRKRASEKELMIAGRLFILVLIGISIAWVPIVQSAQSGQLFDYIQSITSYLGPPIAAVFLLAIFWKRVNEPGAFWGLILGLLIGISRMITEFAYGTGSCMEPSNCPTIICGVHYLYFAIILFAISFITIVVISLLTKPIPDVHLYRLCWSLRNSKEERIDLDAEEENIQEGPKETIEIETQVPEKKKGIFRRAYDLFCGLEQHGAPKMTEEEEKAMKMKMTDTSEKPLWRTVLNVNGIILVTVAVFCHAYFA

[4] = mean inhibition with 50 μmol/L inhibitor

| Structure (SMILES) | remaining activity at 5 µM [2] [%] | remaining activity at 50 µM [2] [%] | remaining activity at 5 µM [3] [%] | remaining activity at 50 µM [3] [%] | also measured |
| --- | --- | --- | --- | --- | --- |
| CN[C@H]1CC[C@@H](c2ccc(Cl)c(Cl)c2)c2ccccc21 [Sertraline HCl] |  |  |  |  | CY[…], mean ([1]; ToxiLight, adenylate kinase leakage): -21 |
| OC1(c2ccccc2)CCNC2CCCCC21 (stereo not drawn) [4-Phenyldecahydro-4-quinolinol] | 94 | 81 | 98 | 97 |  |
| c1coc(-c2nnc([C@H]3CCN(C4CCCCC4)C3)o2)c1 | 98 | 89 | 122 | 98 |  |
| Oc1c(Br)cc(Br)c2cccnc12 [Broxyquinoline] | 100 | 90 | 110 | 69 |  |
| COc1cc(O)c2c(=O)c(-c3ccc(OC4OC(CO)C(O)C(O)C4O)cc3)coc2c1 (stereo not drawn) [Prunetin‐4‐p‐galactoside] |  |  |  |  | inhibition at 50 µM [2, 4]: 12%; SGLT2/SGLT1‐50μmol/L (ratio of SGLT2 to SGLT1 activities with 50 μmol/L inhibitor) [3]: 2.3; inhibition at 50 µM [3]: 62% |
| Oc1ccc(C=Cc2cc(O)cc3c2C(c2cc(O)cc(O)c2)C(c2ccc(O)cc2)O3)cc1 (stereo not drawn) [(+)‐ε‐viniferin] |  |  |  |  | IC50 ([2]; 1‐NBD‐glucose uptake, CHO‐hSGLT2, mean of n biological replicates, or individual measurements where n=2, read-out: SGLT2‐IC50 Mean): 110 µM; SGLT2 inhibition [2, 4]: little inhibition of SGLT2; IC50 ([3]; 1‐NBD‐glucose uptake, CHO‐hSGLT1, mean of n biological replicates, or individual measurements where n=2, read-out: SGLT1‐IC50 Mean): 58 µM; SGLT2/SGLT1‐50μmol/L (ratio of SGLT2 to SGLT1 activities with 50 μmol/L inhibitor) ([3]; listed as (+)‐ε‐Viniferin): 1.4; inhibition at 50 µM [3]: 44% |
| Cc1ccccc1C(OCCN(C)C)c1ccccc1 (stereo not drawn) [Orphenadrine HCl] |  |  |  |  | CYTOTOXICITY (% of vehicle control) Mean ([1]; mean): 9 % of vehicle control |
| CN1CCc2cc3c(cc2C2OC(O)c4c(ccc5c4OCO5)C21)OCO3 (stereo not drawn) [(Iso)rheagenine] |  |  |  |  | activity [2]: 97%; SGLT2/SGLT1 ACTIVITY RATIO 5 uM Mean [2]: 0.857; activity [3]: 114% |
| O=C(/C=C/c1ccc(O[C@@H]2O[C@H](CO)[C@@H](O)[C@H](O)[C@H]2O)cc1)c1ccc(O)cc1O [Isoliquiritin] |  |  |  |  | activity [2]: 98%; inhibition at 50 µM [2, 4]: 24%; SGLT2/SGLT1 ACTIVITY RATIO 5 uM Mean [2]: 1.0; SGLT2/SGLT1‐50μmol/L (ratio of SGLT2 to SGLT1 activities with 50 μmol/L inhibitor) [3]: 1.4; activity [3]: 96%; inhibition at 50 µM [3]: 46% |
| CCN(CC)CC(=O)Nc1c(C)cccc1C [Lidocaine] | 90 | 77 | 90 | 82 |  |
| CN1CC[C@H](c2nc3ccccc3s2)C1 | 104 | 112 | 116 | 116 |  |
| Cn1c(CO[C@H]2CN(Cc3ccncc3F)C[C@H]2F)nc2ccccc21 | 99 | 99 | 115 | 115 |  |
| c1ccc(C23CCN(CC2)CC3)cc1 [4-Phenylquinuclidine] | 81 | 60 | 96 | 72 |  |
| CN1CCC[C@@H]1CCO[C@](C)(c1ccccc1)c1ccc(Cl)cc1 [Clemastine fumarate] |  |  |  |  | CY[…] 50 mM ([1]; mean, at 50 mM (so in the source)): 2.45 |
| CCCCN1CCCC[C@H]1C(=O)Nc1c(C)cccc1C [levobupivacaine, reference compound] | 73 | 46 | 74 | 41 | SGLT1/2 inhibition stated in words ([3]; SGLT1 and/or SGLT2, discussion statements): novel SGLT1/2 inhibitors |
| COc1ccc2ccc(=O)oc2c1C(OC(C)=O)C(=O)C(C)C (stereo not drawn) [Hainanmurpanin] |  |  |  |  | activity [2]: 108%; SGLT2/SGLT1 ACTIVITY RATIO 5 uM Mean [2]: 1.0; activity [3]: 110% |
| CCN(CC)CCOC(=O)C1(c2ccccc2)CCCC1 [Caramiphen, reference compound] |  |  |  |  | inhibition at 50 µM [2, 4]: 58%; SGLT2/SGLT1‐50μmol/L (ratio of SGLT2 to SGLT1 activities with 50 μmol/L inhibitor) [3]: 0.6; inhibition at 50 µM [3]: 33% |
| Oc1c(I)cc(I)c2cccnc12 | 107 | 107 | 109 | 106 |  |
